{"source": "patent US20240358808A1", "about": "“VACCINE FOR SARS-COV-2” (FLOW PHARMA, INC., priority 2021, published 2024)", "biological_target": "DRB3*0202 (Homo sapiens, UniProt P01903+P79483, A212P/D57E/F66Y/L67A/R103Q/R218S/R40L/S89Y/T80R/V86D/Y55F/Y59H)", "sequence (P01903 26-254 limits assumed)": "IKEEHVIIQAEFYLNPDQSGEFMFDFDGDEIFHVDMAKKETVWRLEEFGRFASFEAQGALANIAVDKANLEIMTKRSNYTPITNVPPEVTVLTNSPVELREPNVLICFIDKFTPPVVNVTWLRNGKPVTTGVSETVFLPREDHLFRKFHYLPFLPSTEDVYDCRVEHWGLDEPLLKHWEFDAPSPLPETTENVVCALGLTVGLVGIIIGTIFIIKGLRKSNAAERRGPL", "sequence (P79483 30-266 R40L/Y55F/D57E/Y59H/F66Y/L67A/T80R/V86D/S89Y/R103Q/A212P/R218S limits assumed)": "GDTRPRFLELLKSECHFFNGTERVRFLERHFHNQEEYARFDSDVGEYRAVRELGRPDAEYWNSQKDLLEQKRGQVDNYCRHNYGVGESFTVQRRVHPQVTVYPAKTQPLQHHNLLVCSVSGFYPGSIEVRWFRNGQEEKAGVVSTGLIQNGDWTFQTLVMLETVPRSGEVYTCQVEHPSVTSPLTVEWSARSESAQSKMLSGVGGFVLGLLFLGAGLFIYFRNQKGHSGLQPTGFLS", "experiment": "peptide affinity binding assay (peptide-MHC binding)", "data": [{"smiles": "CC(C)C[C@H](NC(=O)[C@@H](NC(=O)[C@H](Cc1c[nH]c2ccccc12)NC(=O)[C@H](C)NC(=O)[C@H](C)NC(=O)[C@@H](NC(=O)[C@H](Cc1ccccc1)NC(=O)[C@H](CCCCN)NC(=O)[C@H](C)N)C(C)C)[C@@H](C)O)C(=O)N[C@@H](CCCCN)C(=O)N[C@@H](C)C(=O)N[C@@H](C)C(=O)N[C@@H](C)C(=O)O", "note": "[PADRE]", "values": [{"measurement": "peptide-MHC binding affinity before and after the addition of an infrared fluorophore ligand", "result": "essentially unchanged"}]}]}
